Test results reported in US20240025886A1, “INHIBITORS OF IGF2BP1-RNA BINDING” (YISSUM RESEARCH DEVELOPMENT COMPANY OF THE HEBREW …, priority 2020, published 2024).
Values joined by “and” are separate entries in the source; they are usually repeats but may differ in a detail not shown here. Equal entries are not always repeated. One block for each molecule: values may come before it.

Columns and labels:
[1] = molecular target: T1, Igf2bp1 binding to Kras 6 RNA (Homo sapiens, UniProt Q9NZI8); assay: Fluorescence polarization (FP) assay of Igf2bp1 binding to fluorescent Kras 6 RNA; conditions: FP dose response; read-out: IC50 for inhibition of Igf2bp1 binding to Kras 6 RNA
T1 construct: Recombinant full-length Igf2bp1 protein; made in house; host or cells: E. coli BL21(DE3)
Protocol: For the small molecule screen, compounds were obtained from the collection maintained at the Grand Israel National Center for Personalized Medicine, consisting of molecules purchased from commercial vendors. Labelled RNA (10 nM) was incubated with recombinant Igf2bp1 protein (400 nM) in FAM-RNA buffer (10 mM Tris pH 8.0, 75 mM KCl, 0.5 mM EDTA, 1 mM DTT, 0.0188 U/μL RNAsin, 0.0005 μg/mL heparin, 0.0001 μg/μL tRNA, 0.01% Triton X-100, 3 mM MgCl2, 0.05% IGEPAL) at room temperature for 15 min. […] of this reaction mix was aliquoted with GNF WDII (USA) into wells of 1536 well plates, with a final concentration of […] compound or DMSO. The plates were spun down and read in a BMG Pherastar FS (Germany) plate reader plate reader, in FP mode with a 485/520/520 polarization filter, calibrated to 35 mP for free fluorescein with similar total intensity as experimental samples. […]
To determine the quality of the inventors screening assay, the Z′ factor for each plate was calculated with a Z′ factor greater than 0.5 indicating a robust assay suitable for high throughput screening. Compounds that altered the overall fluorescence intensity compared to controls were considered auto florescence and excluded from further analysis. […] Any small molecule that causes a change of more than three standard deviations from the mean is determined appropriate for further investigation.

Igf2bp1 = molecular target: T2, Igf2bp1 (Homo sapiens, UniProt Q9NZI8); assay: Microscale thermophoresis (MST) binding to full-length Igf2bp1; conditions: MST
T2 construct: Recombinant full-length Igf2bp1 protein; made in house; host or cells: E. coli BL21(DE3)
Protocol: Recombinant full-length Igf2bp1 protein was labelled with RED-tris-NTA dye using a Monolith NT His-Tag Labelling Kit (NanoTemper) while RRM12, KH12 and KH34 di-domain peptides were labelled using the Protein Labeling Kit RED NHS 2nd generation (NanoTemper). Labelled proteins were spun at 15,000 g for 5 min to eliminate aggregates. All samples were 2× labelled protein mix of Igf2bp1 (200 nM) in PBST and were combined (1:1) with serial dilutions of compound or Kras6 RNA in binding buffer (10 mMTris pH=7.5, 100 mM NaCl, 0.1 mM EDTA, 0.06% IPEGAL, 0.02 μg/μL tRNA, 2 mM DTT, 0.1 μg/μL heparin) in final volume of 20 μL, room temperature for 15 min. Samples were then loaded into standard capillaries (NanoTemper) and read in the Monolith NT.115 scanner (NanoTemper) using the red filter with reading conditions of 95% LED power and 40% MST power, 5 sec fluorescence before, 30 sec MST on, 5 sec fluorescence after and 25 sec delay between samples. Results were analyzed using the MO Control software (NanoTemper) for curve fitting to KD.

[2] = molecular target: T1, Igf2bp1 binding to Kras 6 RNA; assay: EMSA, Igf2bp1 with fluorescent Kras 6 RNA; set-up: dose or concentration left out as unconfirmed
Protocol: Recombinant Igf2bp1 protein was serially diluted (1:1) starting at an initial concentration of 10,000 nM in 0.75 μg heparin, in a total volume of 13 μL. Fluorescently labelled Kras 6 RNA (750 nM) diluted in reaction buffer (10 mM Tris pH 7.5, 100 mM NaCl, 0.1 mM EDTA, 1 mg/mL tRNA, 0.25% IGEPAL (Sigma), 0.5 mM DTT) was heated to 65° C. for 5 minutes, kept on ice for 1 minute and RNasin (200 U/mL) (ThermoScientific, RiboLock RNase inhibitor) was then added. […] RNA was added to each well protein sample, and after a 30 min incubation at room temperature in the dark, loading dye (3 μL) (30% glycerol, 0.01% bromocresol green) was added to each mixture. For compound inhibition experiments, compounds or DMSO were incubated for 4 hours at 37° C. with the protein prior to adding the RNA. Samples were electrophoresed on native TBE polyacrylamide gels (6% acrylamide/bis-acrylamide 37.5:1, 0.5×TBE) that had been pre-run for 30 min. Gels were run at 120V in 0.5×TBE, at 4° C. in the dark. They were then carefully washed and scanned using a Typhoon FLA9500 imager using Alexa 488 laser and LPB1/2 filter. Igf2bp1-RNA complex formation was quantified using the ImageJ software. Prism6 software was used for curve fitting and KD calculations.

[3] = molecular target: Igf2bp1-cMyc RNA interaction (Homo sapiens, UniProt Q9NZI8); conditions: fluorescence polarization; cited from earlier work
[4] = Cell proliferation, compound 15 (cell line not stated); format: cell-based
H1299 cells = assay: Wound healing (cell migration) assay, H1299 cells; format: cell-based, human; conditions: H1299 cells; 10 μM compound 15 vs 20 μM 7773 in FIGS. 20A-B
Protocol: Cells were seeded in 96 IncuCyte® ImageLock plates (20×10^3 cells per well) for 24 hours, to a near confluency of 95%, before the addition of increasing concentrations of compound. After a further 24 hours, wells were scratched using the IncuCyte® 96-well WoundMaker Tool, and the cells cultured for an additional 48 hours using the IncuCyte® S3 Live-Cell Analysis System (Essen BioScience). The plate was imaged at increments of 120 minutes for a period of 48 hours, and then analyzed for relative wound healing.

La protein = molecular target: T3, La protein (UniProt P05455 P05455:1-408); assay: EMSA; not affected by 7773; conditions: label: 5'-6FAM
T3 sequence: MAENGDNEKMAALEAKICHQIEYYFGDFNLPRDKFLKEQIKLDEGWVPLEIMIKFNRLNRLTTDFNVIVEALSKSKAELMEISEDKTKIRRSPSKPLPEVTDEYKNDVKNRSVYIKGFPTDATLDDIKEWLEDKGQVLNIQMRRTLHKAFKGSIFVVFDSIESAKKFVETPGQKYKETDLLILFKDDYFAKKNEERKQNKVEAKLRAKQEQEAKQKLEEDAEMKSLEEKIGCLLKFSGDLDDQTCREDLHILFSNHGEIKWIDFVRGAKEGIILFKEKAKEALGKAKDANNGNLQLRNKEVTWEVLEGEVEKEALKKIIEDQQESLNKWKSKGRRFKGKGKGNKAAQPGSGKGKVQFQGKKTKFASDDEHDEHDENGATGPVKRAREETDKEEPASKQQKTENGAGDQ

T1 sequence (Q9NZI8 whole entry): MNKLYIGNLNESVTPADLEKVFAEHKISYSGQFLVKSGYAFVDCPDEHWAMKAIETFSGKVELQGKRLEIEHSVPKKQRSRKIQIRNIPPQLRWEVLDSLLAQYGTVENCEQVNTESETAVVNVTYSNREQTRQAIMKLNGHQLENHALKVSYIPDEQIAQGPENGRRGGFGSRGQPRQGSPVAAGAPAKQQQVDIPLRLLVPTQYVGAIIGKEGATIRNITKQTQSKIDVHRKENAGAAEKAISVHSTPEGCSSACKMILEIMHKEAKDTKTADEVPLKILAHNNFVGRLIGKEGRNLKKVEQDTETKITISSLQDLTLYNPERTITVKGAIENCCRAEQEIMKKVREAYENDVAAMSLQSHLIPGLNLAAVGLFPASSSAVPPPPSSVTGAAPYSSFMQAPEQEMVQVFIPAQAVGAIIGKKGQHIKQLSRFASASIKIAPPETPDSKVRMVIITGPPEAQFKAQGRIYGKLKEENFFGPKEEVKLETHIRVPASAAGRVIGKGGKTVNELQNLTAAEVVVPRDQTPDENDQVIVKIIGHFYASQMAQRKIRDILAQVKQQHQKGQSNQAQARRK
T2 sequence (Q9NZI8 whole entry): as above
Sequence of Igf2bp1-cMyc RNA interaction (Q9NZI8 whole entry): as above

IC50 [1]: ~90 µM and > 100 µM
Affinity for Igf2bp1 relative to 7773 (Igf2bp1): approximately seven times lower affinity
Molecule: O=C(c1cccc(-n2cnnn2)c1)N1CCCC(Nc2ccc3c(c2)OCO3)C1 (stereo not shown) [Compound 393, reference compound]
Inhibition of Igf2bp1 binding to Kras 6 RNA (gel shift) [2]: lower, but observable, inhibition of RNA binding

Molecule: NC(=O)c1ccccc1N=Cc1ccc(Br)s1 [BTYNB]
Igf2bp1-cMyc RNA interaction in vitro [3]: inhibited

Molecule: O=C(c1ccc(Cn2c(CO)cc3ccccc32)cc1)N1CCN(c2ccc3c(c2)OCO3)CC1 [Compound 15]
Cell proliferation [4]: inhibition of cell proliferation
Efficiency at inhibiting wound healing compared to Compound 7773 (H1299 cells): over 10 fold

Molecule: CCCGUUGCUUUUCCUCUGGGAAGGAUGGCGCACGCUGGG (ssRNA) [Bcl2 RNA oligo]
binding result (La protein): binds
